# Non-standard residues stand in square brackets, D forms with d. Residues, ends and D or L forms follow the SMILES beside them. dPhe(4-Cl) = N[C@H](Cc1ccc(Cl)cc1)C(=O)O; d2Nal = N[C@H](Cc1ccc2ccccc2c1)C(=O)O; Lys(iPr) = CC(C)NCCCC[C@H](N)C(=O)O; NMeY = CN[C@@H](Cc1ccc(O)cc1)C(=O)O; d3Pal = N[C@H](Cc1cccnc1)C(=O)O
# Tests used:
# [1] = test system: plasma testosterone levels; assay: single dose in male rats, plasma testosterone; type: in vivo
# Description: (§1) Moreover, upon administration, PPI-149 rapidly reduces sex hormone levels to castrate levels. […] Testosterone levels returned to normal by 24 hours after the 300 μg/kg dose, but not until 72 hours after the 1000 μg/kg dose.
# [2] = test system: plasma testosterone levels; assay: eight intravenous doses every three hours, plasma testosterone; type: in vivo, rats
# Description: as §1
# testosterone levels = assay: continuous subcutaneous infusion via osmotic pump, testosterone; type: in vivo, rats
# Description: as §1
# Description for histamine release: Histamine-releasing activity of an LHRH antagonist can be assayed by the method described in U.S. Pat. No. 4,851,385 to Roeske.
compound,measurement,setting,value
"CC(=O)N[C@H](Cc1ccc2ccccc2c1)C(=O)N[C@H](Cc1ccc(Cl)cc1)C(=O)N[C@H](Cc1cccnc1)C(=O)N[C@@H](CO)C(=O)N(C)[C@@H](Cc1ccc(O)cc1)C(=O)N[C@H](CC(N)=O)C(=O)N[C@@H](CC(C)C)C(=O)N[C@@H](CCCCNC(C)C)C(=O)N1CCC[C@H]1C(=O)N[C@H](C)C(N)=O [PPI-149, Ac-D-Nal^1,4-Cl-D-Phe^2, D-Pal^3, N—Me-Tyr^5, D-Asn^6, Lys(iPr)^8, D-Ala^10-LHRH] (Ac-[d2Nal][dPhe(4-Cl)][d3Pal]S[NMeY][dN]L[Lys(iPr)]P[dA]-NH2)",time for testosterone levels to return to normal,[1]; single dose 300 μg/kg,≤ 24 h
same,time for testosterone levels to return to normal,[1]; single dose 1000 μg/kg,72 h
same,plasma testosterone levels,"[1]; single dose 300 or 1000 μg/kg, by 6 hours post-administration",decreased to nearly undetectable levels
same,histamine releasing activity,histamine release,low
same,plasma testosterone levels,[2]; eight intravenous doses of 1 μg/kg every three hours (8 μg/kg/day),significant decrease
same,testosterone levels,[2]; eight intravenous doses of 10 μg/kg every three hours (80 μg/kg/day),castrate levels of testosterone were achieved
same,recovery of testosterone levels following pump removal,testosterone levels; after four weeks of continuous subcutaneous infusion,complete within two weeks
same,time castration level was maintained by subsequent low doses,"testosterone levels; after the high dose, 5, 15 or 50 μg/kg/day by continuous subcutaneous infusion",21 days
same,time to castrate levels of testosterone,"testosterone levels; continuous subcutaneous infusion, 300 or 1000 μg/kg/day for two weeks",≤ 7 days

# Source: patent publication US6737039B2, “Methods for detecting lesions in dense breast tissue using LHRH antagonists” (Praecis Pharmaceutics, Inc., priority 1998, dated 2004)
